From patent US6900239B2, “Tumor chemopotentiation using isocoumarin derivatives” (ILWZ ILEX Products, Inc., priority 2000, dated 2005)

How the values were obtained:
[1] = system: MDAMB-435 human breast tumor xenografts; test: MDAMB-435 orthotopic model, NM-3 with paclitaxel, second study (100 mm^3) and delivery routes; format: in vivo, female NCRNU nude mice; conditions: Taxol 12.5 mg/kg q7d alone
Experimental: In order to determine the effect of the combination of NM-3 with the cytotoxic drug, paclitaxel on human breast tumor xenografts, female NCRNU nude mice were implanted with MDAMB-435 cells into the subaxillary mammary fat pad. NM-3 was administered via intraperitoneal (i.p.) injection daily at doses ranging from 10-100 mg/kg; paclitaxel was administered via i.p. injection every 7 days, starting on day 0, at 10 mg/kg.
In a second study, treatment was initiated when tumor volumes reached 100 mm^3. Paclitaxel was administered at the fixed dose of 12.5 mg/kg, q7d and NM-3 was dosed at 10 and 100 mg/kg, i.p. daily for 28 days.
A comparison was also made between different delivery routes of NM-3 in the combination studies. NM-3 given i.p. daily, bid, and continuously using Alzet mini osmotic pumps in combination with paclitaxel was evaluated for effectiveness in reducing tumor growth.

[2] = system: MDAMB-435 human breast tumor xenografts; test: MDAMB-435 orthotopic model, NM-3 with paclitaxel, first study; format: in vivo, female NCRNU nude mice; conditions: for % Tumor Growth Inhibition: Taxol 10 mg/kg q7d i.p. alone
Description: In order to determine the effect of the combination of NM-3 with the cytotoxic drug, paclitaxel on human breast tumor xenografts, female NCRNU nude mice were implanted with MDAMB-435 cells into the subaxillary mammary fat pad. […]

[3] = system: IMC carcinoma; test: Combination with cyclophosphamide, tumor weight; format: in vivo, CDF1 mice; conditions: Cyclophosphamide 300 mg/kg i.v. day 14 alone
Experimental: To determine the effect on IMC carcinoma growth of NM-3 treatment combined with simultaneous cyclophosphamide treatment, IMC carcinoma cells (1×10^6 cells per mouse) were subcutaneously transplanted into CDF1 mice (female, 10 weeks old) in the inguinal area. NM-3 which was dissolved using 5% DMSO+Tween80, was continuously orally administered from day 1 to day 41 after transplantation except on day 14, when cyclophosphamide (300 mg/kg) was injected intravenously.

[4] = system: colon 26 adenocarcinoma; test: Combination with cyclophosphamide, survival; format: in vivo, BALB/c mice; conditions: Cyclophosphamide 300 mg/kg i.v. day 14 alone
Experimental: To determine the effect on tumor growth of NM-3 treatment combined with simultaneous cyclophosphamide treatment, colon 26 adenocarcinoma cells (5×10^4 cells per mouse) were subcutaneously transplanted into BALB/c mice (female, 7 weeks old) in the inguinal area. NM-3 was continuously orally administered from day 1 to day 72 after the transplantation except on day 14 when cyclophosphamide was dosed.

[5] = system: MDAMB-435 human breast tumor xenografts; test: MDAMB-435 orthotopic model, NM-3 with 5-Fluorouracil; format: in vivo, female NCRNU nude mice; conditions: 5-FU 10 mpk q14d; 0,14 alone
Experimental: In order to evaluate the antitumor activity of NM-3 in combination with 5-Fluorouracil (5-FU) vs. MDAMB-435 human breast tumor xenografts, female NCRNU nude mice were implanted with MDAMB-435 cells into the subaxillary mammary fat pad. When the tumors were between 50 and 80 mm^3, NM-3 was administered via intraperitoneal (i.p.) injection daily at 10 and 100 mg/kg; 5-FU was administered via i.p. injection on days 0 and 14, at 10 mg/kg. Mice were weighed twice weekly, and tumor measurements were taken by calipers twice weekly. Mice were euthenized at the end of the treatment period. Upon termination, the mice were weighed, sacrificed and their tumors were excised.
Initial studies were conducted with 5-FU to determine the optimal dose of this agent when administered in combination with NM-3.

[6] = system: cultured tumor cells; conditions: cited from earlier work
[7] = system: transplantable mouse solid tumors; conditions: oral administration; cited from earlier work
[8] = mice and dogs; cited from earlier work
[9] = in vivo; cited from earlier work
[10] = system: Lewis Lung carcinoma (LLC) tumors; test: Radiation sensitivity of Lewis Lung carcinoma in vivo; design: species or system C57BL/6 female mice; conditions: combined with X-ray treatment
Experimental: To determine whether NM-3 treatment increases the radiation sensitivity of tumors in vivo, Lewis Lung carcinoma (LLC) tumors were established in C57BL/6 female mice (Frederick Cancer Research Institute) prior to NM-3 and radiation treatment. LLC cells (1×10^6 cells) were injected in the right hind limb of the mice and tumors were allowed to grow a volume of 250-350 mm^3. Tumor volumes were determined by direct measurements with calipers calculated by the formula: V=length×width×depth/2. Mice were then divided into groups and treated with NM-3 (100 mg/kg total) or PBS for two days before beginning radiation therapy. Animals then received NM-3 (25 mg/kg/day, i.p.) or PBS approximately four hours prior to radiation treatment. Tumors were irradiated using a GE Maxitron X-ray generator operating at 150 kV, 30 mA, using a 1 mm aluminum filter at a dose rate of 188 cGy/minute. Mice were shielded with lead except for the tumor-bearing area in the hind limb. Treatments and tumor measurements continued for a period of 17 days (see FIG. 4). […] Whereas control tumors reached 8 initial tumor volumes (Vo) after 8 days, X-ray treated tumors required 16 days to grow to this size. […] For comparison, data are plotted with two additional anti-angiogenic drugs, antiostatin and endostatin (see FIGS. 3B and 3C).

[11] = system: Human umbilical vein endothelial cells (HUVEC); test: HUVEC colony formation with a constant amount of gamma radiation; format: cell-based
Experimental: Human umbilical vein endothelial cells (HUVEC) were exposed to a constant amount of gamma radiation in the presence or absence of various concentrations of NM-3 in the culture medium. The numbers of HUVEC colonies that formed following the different treatments were recorded and normalized to the number of colonies formed under control (no NM-3) conditions and the results are shown in FIG. 1. […] For comparison, HUVEC cells were treated with either angiostatin or endostatin, two additional anti-angiogenic proteins.

CC(=O)O[C@H]1C(=O)[C@@]2(C)[C@H]([C@H](OC(=O)c3ccccc3)[C@]3(O)C[C@H](OC(=O)[C@H](O)[C@@H](NC(=O)c4ccccc4)c4ccccc4)C(C)=C1C3(C)C)[C@]1(OC(C)=O)CO[C@@H]1C[C@@H]2O [Taxol, paclitaxel]
% Tumor Growth Inhibition [1]: 26.52% | Final Tumor Ratio (V/Vo) +/− SEM [1]: 4.71 ± 0.76 V/Vo | Mice with Complete Shrinkage ([1]; n 9): 0 | Final Tumor Wt. (mg) +/− SEM ([2]; Taxol 10 mg/kg q7d alone): 215.6 ± 19.73 mg | Mice with Complete Shrinkage ([2]; Taxol 10 mg/kg q7d alone, n 9): 0 | % Tumor Growth Inhibition ([2]; listed as Paclitaxel): no tumor growth inhibition | % Tumor Growth Inhibition ([2]; listed as paclitaxel): minimal effect | Tumor growth inhibition ([2]; paclitaxel 20 mg/kg, single agent): significant effect on tumor growth inhibition

O=P1(N(CCCl)CCCl)NCCCO1 (stereo not shown) [Cyclophosphamide, reference compound]
Inhibition (%) [3]: 70.7% | Solid Weight mg ± S.D. ([3]; day 42): 3620.4 ± 1406.3 mg | Mean Survival Days (days ± S.D.) [4]: 47.9 ± 13.9 days | T/C (%) [4]: 145.1% | T/C (%) ([4]; listed as cyclophosphamide): 145%

O=c1[nH]cc(F)c(=O)[nH]1 [5-FU, 5-Fluorouracil, reference compound]
Final Tumor Wt. (mg) +/− SEM [5]: 259.6 ± 36.22 mg

COc1cc(O)c2c(=O)oc(CO)cc2c1 [Cytogenin, 3-hydroxymethyl-6-methoxy-8-hydroxy-1H-2-benzopyran-1-one]
Anti-proliferation inhibitory activity [6]: very low anti-proliferation inhibitory activity | Antitumor activity [7]: demonstrated antitumor activities | Toxicity [8]: low toxicity | Stability [9]: in vivo instability

B1: angiostatin: 38-kDa fragment of plasminogen that selectively inhibits proliferation of endothelial cells; anti-angiogenic protein (protein, UniProt P00747 79-466, looked up)
Angiostatin: NRKSSIIIRMRDVVLFEKKVYLSECKTGNGKNYRGTMSKTKNGITCQKWSSTSPHRPRFSPATHPSEGLEENYCRNPDNDPQGPWCYTTDPEKRYDYCDILECEEECMHCSGENYDGKISKTMSGLECQAWDSQSPHAHGYIPSKFPNKNLKKNYCRNPDRELRPWCFTTDPNKRWELCDIPRCTTPPPSSGPTYQCLKGTGENYRGNVAVTVSGHTCQHWSAQTPHTHNRTPENFPCKNLDENYCRNPDGKRAPWCHTTNSQVRWEYCKIPSCDSSPVSTEQLAPTAPPELTPVVQDCYHGDGQSYRGTSSTTTTGKKCQSWSSMTPHRHQKTPENYPNAGLTMNYCRNPDADKGPWCFTTDPSVRWEYCNLKKCSGTEASVVAPPP
modifications: Angiostatin
notes: anti-angiogenic protein
Radiation sensitization of tumors [10]: some radiation sensitization | Inhibition of HUVEC growth compared with NM-3 [11]: Neither angiostatin nor endostatin inhibited HUVEC growth to the extent of NM-3

B2: endostatin: anti-angiogenic protein used for comparison (protein, UniProt P39060 1572-1754, looked up)
Endostatin: HSHRDFQPVLHLVALNSPLSGGMRGIRGADFQCFQQARAVGLAGTFRAFLSSRLQDLYSIVRRADRAAVPIVNLKDELLFPSWEALFSGSEGPLKPGARIFSFDGKDVLRHPTWPQKSVWHGSDPNGRRLTESYCETWRTEAPSATGQASSLLGGRLLGQSAASCHHAYIVLCIENSFMTASK
modifications: Endostatin
notes: anti-angiogenic protein used for comparison
Radiation sensitization of tumors [10]: did not | Inhibition of HUVEC growth compared with NM-3 [11]: Neither angiostatin nor endostatin inhibited HUVEC growth to the extent of NM-3
